Values joined by “and” are separate entries in the source; they are usually repeats but may differ in a detail not shown here. Equal entries are not always repeated.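 Assay format: 96-well plates, 48-hour exposure. At the GI50, growth is halved. TGI: concentration producing complete growth inhibition.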
Tests used:
Test in all cases: NCI tumour cell line growth inhibition, 48 h
CCRF-CEM leukemia = system: CCRF-CEM leukemia
HCT-116 colon = system: HCT-116 colon
HS 578T breast = system: HS 578T breast
IGROV1 ovarian = system: IGROV1 ovarian
MALME-3M melanoma = system: MALME-3M melanoma
MCF7 breast = system: MCF7 breast
MDA-MB-231 breast = system: MDA-MB-231 breast
SF-539 CNS = system: SF-539 CNS
SNB-19 CNS = system: SNB-19 CNS
UO-31 renal = system: UO-31 renal

Row | Compound | GI50 (CCRF-CEM leukemia) | TGI (CCRF-CEM leukemia) | GI50 (HCT-116 colon) | TGI (HCT-116 colon) | GI50 (HS 578T breast) | TGI (HS 578T breast) | GI50 (IGROV1 ovarian) | TGI (IGROV1 ovarian) | GI50 (MALME-3M melanoma) | TGI (MALME-3M melanoma) | GI50 (MCF7 breast) | TGI (MCF7 breast) | GI50 (MDA-MB-231 breast) | TGI (MDA-MB-231 breast) | GI50 (SF-539 CNS) | TGI (SF-539 CNS) | GI50 (SNB-19 CNS) | TGI (SNB-19 CNS) | GI50 (UO-31 renal) | TGI (UO-31 renal)
1 | O=C1Nc2ccc(CN3CCOC3=O)cc2/C1=C/c1cc(CN2CCOCC2)c[nH]1 | 35.4 µM | > 100 µM | 37.2 µM | > 100 µM | > 69.8 µM | > 100 µM | 50.6 µM | > 100 µM | > 71.5 µM | > 100 µM | 24.1 µM | > 91.9 µM | 78.8 µM | > 100 µM | 53.9 µM | > 100 µM | 98.7 µM | > 100 µM | 21.5 µM | > 94.7 µM
2 | CC(C)C[C@H]1C(=O)N2CCC[C@H]2[C@]2(O)O[C@](NC(=O)[C@@H]3C=C4c5cccc6[nH]c(Br)c(c56)C[C@H]4N(C)C3)(C(C)C)C(=O)N12 | – | > 100 µM | – | > 100 µM | – | > 100 µM | – | > 100 µM | – | > 100 µM | – | > 100 µM | – | > 100 µM | – | > 100 µM | – | > 100 µM | – | > 100 µM
3 | Cc1ncc([N+](=O)[O-])n1CCNC(=O)Cn1ccnc1[N+](=O)[O-] | – | > 100 µM | – | > 100 µM | – | > 100 µM | – | > 100 µM | – | > 100 µM | – | > 100 µM | – | > 100 µM | – | > 100 µM | – | > 100 µM | – | > 100 µM
4 | O=C(c1ccccc1)c1ccc(O)c2ncccc12 | 3.64 µM | > 100 µM | 2.62 µM | 10.3 µM | 5.08 µM | 72 µM | 2.4 µM | 11.9 µM | 5.1 µM | 46.4 µM | 2.93 µM | 9.08 µM | 3.6 µM | 64.3 µM | 4.66 µM | 21.3 µM | 6.54 µM | > 100 µM | 1.28 µM | 13.5 µM
5 | C=C1C(=O)O[C@H]2[C@H]1CC/C(COC(=O)C(=O)c1c[nH]c3ccc(Cl)cc13)=C\CC[C@@]1(C)O[C@@H]21 | 0.375 µM | 10.1 µM | 1.65 µM | 3.23 µM | 3.52 µM | 29.4 µM | 1.63 µM | 3.32 µM | 1.74 µM | 3.47 µM | 0.779 µM | 4.27 µM | 1.84 µM | 4.03 µM | 1.74 µM | 3.32 µM | 3.22 µM | 10.8 µM | 1.22 µM | 2.53 µM
6 | C/C(=C1/N=C(c2ccccc2)OC1=O)c1ccccc1 | – | > 100 µM | – | > 100 µM | – | > 100 µM | – | > 100 µM | – | > 100 µM | – | > 100 µM | – | > 100 µM | – | > 100 µM | – | > 100 µM | – | –
7 | CCCC(CCC)Oc1ccc(CCCC2=C(O)c3ccccc3C(=O)C2=O)cc1 | 2.9 µM | 17.1 µM | 2.17 µM | 13.6 µM | 11.7 µM | 37.4 µM | 4.93 µM | 18.5 µM | 7.53 µM | 23.5 µM | 4.32 µM | 15.2 µM | 12.3 µM | 28.9 µM | 5.43 µM | 18.7 µM | – | – | 2.69 µM | 13.8 µM
8 | CCOc1ccc(NC(=O)c2cc3ccccc3cc2O)cc1 | 17.9 µM | 41.7 µM | 71.2 µM | > 100 µM | 59.8 µM | > 100 µM | 74 µM | > 100 µM | 39.7 µM | > 100 µM | > 100 µM | > 100 µM | 53.8 µM | > 100 µM | 33.2 µM | > 100 µM | 41.2 µM | > 100 µM | 49.3 µM | > 100 µM
9 | O=C(O)c1nnsc1-c1csnn1 | – | > 100 µM | – | > 100 µM | – | > 100 µM | – | > 100 µM | – | > 100 µM | – | > 100 µM | – | > 100 µM | – | > 100 µM | – | > 100 µM | – | > 100 µM
10 | Nc1cc(N)cc(Cc2ccccc2)c1 | – | > 100 µM | – | > 100 µM | – | > 100 µM | – | > 100 µM | – | > 100 µM | – | > 100 µM | – | > 100 µM | – | > 100 µM | – | > 100 µM | – | > 100 µM
11 | Cc1ccc(N(/C=C/C(=O)C(F)(F)F)CC(=O)c2ccc(Cl)c(Cl)c2)cc1 | 4.89 µM | 20.8 µM | 4.3 µM | 17.7 µM | 2.35 µM | 17.1 µM | 5.75 µM | 18.6 µM | 6 µM | 20.6 µM | 7.27 µM | 20.2 µM | 3.12 µM | 17.9 µM | 2.77 µM | 17 µM | 12.9 µM | 25.5 µM | 5.77 µM | 19.1 µM
12 | c1ccc2c(-c3cnn4cc(-c5ccc(N6CCNCC6)cc5)cnc34)ccnc2c1 | 0.196 µM | 0.447 µM | 0.313 µM | 1.19 µM | 1.25 µM | 2.93 µM | 0.801 µM | 2.23 µM | 1.34 µM | 2.92 µM | 0.429 µM | 1.7 µM | 1.48 µM | 3.03 µM | 1.31 µM | 2.6 µM | 1.25 µM | 2.56 µM | 1.19 µM | 2.43 µM
13 | Clc1ccc(N/N=C(\c2ccccc2)c2ccccn2)nc1 | 0.0454 µM | – | 0.0313 µM | 10.6 µM and 11.1 µM | 0.781 µM | – | 0.139 µM | – | 0.0904 µM | 72.2 µM and 25.7 µM | 0.0302 µM | > 100 µM | 0.237 µM | > 65.8 µM and 48.4 µM | 0.297 µM | 5.57 µM and 9.47 µM | 0.466 µM | > 100 µM | 0.163 µM | 2.38 µM and 0.817 µM
14 | CCOc1ccc2c(c1)C(=O)c1c-2n(CCCN)c(=O)c2cc([N+](=O)[O-])ccc12 | < 0.01 µM | 0.0208 µM | 0.0638 µM | 0.543 µM | 1.93 µM | 4.04 µM | – | – | 0.574 µM | 2.37 µM | < 0.01 µM | 0.271 µM | 1.81 µM | 3.43 µM | 0.0517 µM | 0.209 µM | 0.0346 µM | 1.48 µM | < 0.01 µM | 0.205 µM
15 | OCc1ncc(-c2ccccc2)s1 | > 100 µM | > 100 µM | > 100 µM | > 100 µM | > 100 µM | > 100 µM | > 100 µM | > 100 µM | > 100 µM | > 100 µM | > 100 µM | > 100 µM | > 100 µM | > 100 µM | > 100 µM | > 100 µM | > 100 µM | > 100 µM | > 100 µM | > 100 µM
16 | CN(C)CCCN1c2ccc(O)cc2Sc2ccc(Cl)cc21 | – | 22.2 µM | – | 20.1 µM | – | 23.1 µM | – | 22 µM | – | 24 µM | – | 26.5 µM | – | 23.6 µM | – | 28.7 µM | – | 27.6 µM | – | 21.7 µM
17 | CCOC(=O)Nc1ccc(C(=O)/C=C/c2ccccc2)cc1 | 36.9 µM | > 100 µM | 3.31 µM | 11.4 µM | 30.9 µM | 86 µM | 19.3 µM | > 100 µM | 77.4 µM | > 100 µM | 3.14 µM | 33.9 µM | 33.4 µM | > 100 µM | 20.2 µM | 46.3 µM | 26.4 µM | > 100 µM | 26.9 µM | > 100 µM
18 | C[C@@H]1CC[C@@H]2[C@@H]1[C@H](OC(=O)c1ccc3ccccc3c1)[C@]1(C3CCCCC3)C[C@@H](OC(=O)CO)[C@@]2(C)O1 | 5.36 µM | 23.6 µM | 6.46 µM | 19.6 µM | 0.023 µM | 0.0757 µM | 15.6 µM | 32.8 µM | 16.5 µM | 32.3 µM | 3.44 µM | 16.5 µM | 13.6 µM | 29.3 µM | 13.7 µM | 27.9 µM | 14.6 µM | 28.8 µM | – | –
19 | COc1cccc2c1C(=O)c1c(O)c3c(c(O)c1C2=O)C[C@@](O)(C(C)=O)C[C@@H]3OC1CC(O)C(O)C(C)O1 (stereo not given in full) | – | 1.98 µM and 2.06 µM | – | 3.54 µM and 3.82 µM | – | 6.93 µM | – | – | – | 6.66 µM and 5.96 µM | 0.153 µM | > 94.4 µM | – | > 100 µM | – | 9.15 µM and 10.2 µM | – | 8.41 µM and 20.5 µM | – | 10 µM
20 | COC(=O)[C@@H]1[C@H](O)[C@H](C)[C@H](O)[C@H](C)/C=C\C=C(C)C(=O)Nc2c(C)c(OC(C)=O)c3c(c2O)C(=O)C(C)=C2OCOC(=C23)C(C)=C[C@@](C)(O)[C@H](O)[C@@H](C)[C@H]1OC(C)=O | – | > 100 µM | – | 48.6 µM | – | > 100 µM | – | > 100 µM | – | > 100 µM | – | 65.3 µM | – | > 100 µM | – | – | – | > 100 µM | – | > 100 µM
21 | COc1cc2oc(-c3cccc(C(=O)Nc4ccc(C)cc4)c3)cc(=O)c2c(OC)c1OC | 4.38 µM | > 100 µM | 2.21 µM | 21.8 µM | 4.61 µM | > 100 µM | 2.99 µM | > 100 µM | – | – | 2.53 µM | > 100 µM | 0.468 µM | 3.23 µM | 2.58 µM | 10.5 µM | 6.49 µM | > 100 µM | 3.5 µM | > 100 µM
22 | COc1ccccc1Nc1nc2ccccc2c2occc12 | 27.9 µM | > 50 µM | 20.8 µM | > 50 µM | 22.1 µM | 49 µM | 14 µM | 39.5 µM | – | – | 15.9 µM | > 50 µM | 10.9 µM | 29.1 µM | 9.76 µM | 21.5 µM | 14.5 µM | > 50 µM | 14.7 µM | 24 µM

Reference: PubChem BioAssay (NCI)
